Assay results taken from patent US6525001B1, “Substituted pyrimidine and pyridine herbicides” (Mid-American Commercialization Corporation, priority 1997, dated 2003).

Columns and labels:
Type in all cases: in vivo
Design in all cases: key: 0 is no effect; 10 is complete control
[1] = tested on: bedstraw (Galium aparine); assay: Test B pre-/postemergence
Description: (§1) Seeds of bedstraw (Galium aparine), blackgrass (Alopecurus myosuroides), broadleaf signalgrass (Brachiaria decumbens), cocklebur (Xanthium strumarium), corn (Zea mays), crabgrass (Digitaria sanguinalis), giant foxtail (Setaria faberii), lambsquarters (Chenopodium album), momingglory (Ipomoea hederacea), pigweed (Amaranthus retroflexus), rape (Brassica napus), soybean (Glycine max), sugar beet (Beta vulgaris), velvetleaf (Abutilon theophrasti), wheat (Triticum aestivum), wild oat (Avena fatua) and purple nutsedge (Cyperus rotundus) tubers were planted and treated preemergence with test chemicals formulated in a non-phytotoxic solvent mixture which included a surfactant.
(§2) At the same time, these crop and weed species were also treated with postemergence applications of test chemicals formulated in the same manner. Plants ranged in height from 2 to 18 cm (1- to 4-leaf stage) for postemergence treatments. Plant species in the flood test consisted of rice (Oryza sativa), smallflower flatsedge (Cyperus difformis), duck salad (Heteranthera limosa) and bamyardgrass (Echinochloa crus-galli) grown to the 2-leaf stage for testing. Treated plants and controls were maintained in a greenhouse for twelve to sixteen days, after which all species were compared to controls and visually evaluated. Plant response ratings, summarized in Table B, are based on a scale of 0 to 10 where 0 is no effect and 10 is complete control. A dash (−) response means no test result.

[2] = tested on: blackgrass (Alopecurus myosuroides); assay: Test B pre-/postemergence
Description: as §1, §2

[3] = tested on: broadleaf signalgrass (Brachiaria decumbens); assay: Test B pre-/postemergence
Description: as §1, §2

[4] = tested on: cocklebur (Xanthium strumarium); assay: Test B pre-/postemergence; details: for Plant response rating, Cocklebur: Postemergence; for Cocklebur plant response rating: Preemergence
Description: as §1, §2

corn (Zea mays) = assay: Test B pre-/postemergence
Description: as §1, §2

[5] = tested on: crabgrass (Digitaria sanguinalis); assay: Test B pre-/postemergence
Description: as §1, §2

[6] = tested on: giant foxtail (Setaria faberii); assay: Test B pre-/postemergence
Description: as §1, §2

[7] = tested on: momingglory (Ipomoea hederacea); assay: Test B pre-/postemergence
Description: as §1, §2

[8] = tested on: pigweed (Amaranthus retroflexus); assay: Test B pre-/postemergence
Description: as §1, §2

[9] = tested on: purple nutsedge (Cyperus rotundus); assay: Test B pre-/postemergence
Description: as §1, §2

rape (Brassica napus) = assay: Test B pre-/postemergence
Description: as §1, §2

soybean (Glycine max) = assay: Test B pre-/postemergence
Description: as §1, §2

[10] = tested on: sugar beet (Beta vulgaris); assay: Test B pre-/postemergence
Description: as §1, §2

[11] = tested on: velvetleaf (Abutilon theophrasti); assay: Test B pre-/postemergence
Description: as §1, §2

[12] = tested on: wheat (Triticum aestivum); assay: Test B pre-/postemergence
Description: as §1, §2

wild oat (Avena fatua) = assay: Test B pre-/postemergence
Description: as §1, §2

[13] = tested on: bamyardgrass (Echinochloa crus-galli); assay: Test B flood test
Method in brief: (§3)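 Each value is a visual injury score relative to controls, with 10 meaning complete control and 0 no effect. Evaluation took place twelve to sixteen days after the 2-leaf-stage plants were treated and kept in the greenhouse.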

[14] = tested on: duck salad (Heteranthera limosa); assay: Test B flood test
Method in brief: as §3

rice (Oryza sativa) = assay: Test B flood test
Method in brief: as §3

[15] = tested on: smallflower flatsedge (Cyperus difformis); assay: Test B flood test
Method in brief: as §3

[16] = Rate 62 g/ha, Postemergence (flood test)
[17] = Rate 125 g/ha, Postemergence, flood test
[18] = Rate 250 g/ha, Postemergence (flood test species)

COC(c1cccc(C(F)(F)F)c1)c1nc(-c2ccc(C(F)(F)F)cc2)ncc1C (racemic) [Compound 20]
Plant response rating, Bedstraw ([1]; Rate 62 g/ha, Postemergence): 4 | Bedstraw plant response rating ([1]; Rate 62 g/ha, Preemergence): 0 | Plant response rating, Bedstraw ([1]; Rate 125 g/ha, Postemergence): 4 | Bedstraw plant response rating ([1]; Rate 125 g/ha, Preemergence): 0 | Plant response rating, Bedstraw ([1]; Rate 250 g/ha, Postemergence): 4 | Plant response rating, Bedstraw ([1]; Rate 250 g/ha, Preemergence): 1 | Plant response rating, Blackgrass ([2]; Rate 62 g/ha, Postemergence): 2 | Blackgrass plant response rating ([2]; Rate 62 g/ha, Preemergence): 1 | Plant response rating, Blackgrass ([2]; Rate 125 g/ha, Postemergence): 2 | Blackgrass plant response rating ([2]; Rate 125 g/ha, Preemergence): 2 | Plant response rating, Blackgrass ([2]; Rate 250 g/ha, Postemergence): 3 | Plant response rating, Blackgrass ([2]; Rate 250 g/ha, Preemergence): 4 | Plant response rating, B. signalgrass ([3]; Rate 62 g/ha, Postemergence): 2 | B. signalgrass plant response rating ([3]; Rate 62 g/ha, Preemergence): 0 | Plant response rating, B. signalgrass ([3]; Rate 125 g/ha, Postemergence): 2 | B. signalgrass plant response rating ([3]; Rate 125 g/ha, Preemergence): 1 | Plant response rating, B. signalgrass ([3]; Rate 250 g/ha, Postemergence): 3 | Plant response rating, B. signalgrass ([3]; Rate 250 g/ha, Preemergence): 4 | Plant response rating, Cocklebur ([4]; Rate 62 g/ha): 4 | Cocklebur plant response rating ([4]; Rate 62 g/ha): 0 | Plant response rating, Cocklebur ([4]; Rate 125 g/ha): 5 | Cocklebur plant response rating ([4]; Rate 125 g/ha): 0 | Plant response rating, Cocklebur ([4]; Rate 250 g/ha): 7 | Plant response rating, Corn (corn (Zea mays); Rate 62 g/ha, Postemergence): 3 | Corn plant response rating (corn (Zea mays); Rate 62 g/ha, Preemergence): 0 | Plant response rating, Corn (corn (Zea mays); Rate 125 g/ha, Postemergence): 3 | Corn plant response rating (corn (Zea mays); Rate 125 g/ha, Preemergence): 0 | Plant response rating, Corn (corn (Zea mays); Rate 250 g/ha, Postemergence): 3 | Plant response rating, Corn (corn (Zea mays); Rate 250 g/ha, Preemergence): 0 | Plant response rating, Crabgrass ([5]; Rate 62 g/ha, Postemergence): 2 | Crabgrass plant response rating ([5]; Rate 62 g/ha, Preemergence): 0 | Plant response rating, Crabgrass ([5]; Rate 125 g/ha, Postemergence): 3 | Crabgrass plant response rating ([5]; Rate 125 g/ha, Preemergence): 1 | Plant response rating, Crabgrass ([5]; Rate 250 g/ha, Postemergence): 3 | Plant response rating, Crabgrass ([5]; Rate 250 g/ha, Preemergence): 2 | Plant response rating, Giant foxtail ([6]; Rate 62 g/ha, Postemergence): 2 | Giant foxtail plant response rating ([6]; Rate 62 g/ha, Preemergence): 0 | Plant response rating, Giant foxtail ([6]; Rate 125 g/ha, Postemergence): 2 | Giant foxtail plant response rating ([6]; Rate 125 g/ha, Preemergence): 0 | Plant response rating, Giant foxtail ([6]; Rate 250 g/ha, Postemergence): 3 | Plant response rating, Giant foxtail ([6]; Rate 250 g/ha, Preemergence): 1 | Plant response rating, Morningglory ([7]; Rate 62 g/ha, Postemergence): 3 | Morningglory plant response rating ([7]; Rate 62 g/ha, Preemergence): 0 | Plant response rating, Morningglory ([7]; Rate 125 g/ha, Postemergence): 4 | Morningglory plant response rating ([7]; Rate 125 g/ha, Preemergence): 0 | Plant response rating, Morningglory ([7]; Rate 250 g/ha, Postemergence): 4 | Plant response rating, Morningglory ([7]; Rate 250 g/ha, Preemergence): 0 | Plant response rating, Redroot pigweed ([8]; Rate 62 g/ha, Postemergence): 5 | Redroot pigweed plant response rating ([8]; Rate 62 g/ha, Preemergence): 0 | Plant response rating, Redroot pigweed ([8]; Rate 125 g/ha, Postemergence): 7 | Redroot pigweed plant response rating ([8]; Rate 125 g/ha, Preemergence): 0 | Plant response rating, Redroot pigweed ([8]; Rate 250 g/ha, Postemergence): 8 | Plant response rating, Redroot pigweed ([8]; Rate 250 g/ha, Preemergence): 1 | Plant response rating, Nutsedge ([9]; Rate 62 g/ha, Postemergence): 0 | Nutsedge plant response rating ([9]; Rate 62 g/ha, Preemergence): 0 | Plant response rating, Nutsedge ([9]; Rate 125 g/ha, Postemergence): 0 | Plant response rating, Nutsedge ([9]; Rate 250 g/ha, Postemergence): 0 | Plant response rating, Nutsedge ([9]; Rate 250 g/ha, Preemergence): 0 | Plant response rating, Rape (rape (Brassica napus); Rate 62 g/ha, Postemergence): 3 | Rape plant response rating (rape (Brassica napus); Rate 62 g/ha, Preemergence): 0 | Plant response rating, Rape (rape (Brassica napus); Rate 125 g/ha, Postemergence): 4 | Rape plant response rating (rape (Brassica napus); Rate 125 g/ha, Preemergence): 0 | Plant response rating, Rape (rape (Brassica napus); Rate 250 g/ha, Postemergence): 5 | Plant response rating, Rape (rape (Brassica napus); Rate 250 g/ha, Preemergence): 0 | Plant response rating, Soybean (soybean (Glycine max); Rate 62 g/ha, Postemergence): 4 | Soybean plant response rating (soybean (Glycine max); Rate 62 g/ha, Preemergence): 0 | Plant response rating, Soybean (soybean (Glycine max); Rate 125 g/ha, Postemergence): 5 | Soybean plant response rating (soybean (Glycine max); Rate 125 g/ha, Preemergence): 0 | Plant response rating, Soybean (soybean (Glycine max); Rate 250 g/ha, Postemergence): 6 | Plant response rating, Soybean (soybean (Glycine max); Rate 250 g/ha, Preemergence): 0 | Plant response rating, Sugarbeets ([10]; Rate 62 g/ha, Postemergence): 3 | Sugarbeets plant response rating ([10]; Rate 62 g/ha, Preemergence): 0 | Plant response rating, Sugarbeets ([10]; Rate 125 g/ha, Postemergence): 5 | Sugarbeets plant response rating ([10]; Rate 125 g/ha, Preemergence): 0 | Plant response rating, Sugarbeets ([10]; Rate 250 g/ha, Postemergence): 7 | Plant response rating, Sugarbeets ([10]; Rate 250 g/ha, Preemergence): 2 | Plant response rating, Velvetleaf ([11]; Rate 62 g/ha, Postemergence): 4 | Velvetleaf plant response rating ([11]; Rate 62 g/ha, Preemergence): 0 | Plant response rating, Velvetleaf ([11]; Rate 125 g/ha, Postemergence): 6 | Velvetleaf plant response rating ([11]; Rate 125 g/ha, Preemergence): 0 | Plant response rating, Velvetleaf ([11]; Rate 250 g/ha, Postemergence): 7 | Plant response rating, Velvetleaf ([11]; Rate 250 g/ha, Preemergence): 0 | Plant response rating, Wheat ([12]; Rate 62 g/ha, Postemergence): 2 | Wheat plant response rating ([12]; Rate 62 g/ha, Preemergence): 0 | Plant response rating, Wheat ([12]; Rate 125 g/ha, Postemergence): 3 | Wheat plant response rating ([12]; Rate 125 g/ha, Preemergence): 0 | Plant response rating, Wheat ([12]; Rate 250 g/ha, Postemergence): 3 | Plant response rating, Wheat ([12]; Rate 250 g/ha, Preemergence): 0 | Plant response rating, Wild oats (wild oat (Avena fatua); Rate 62 g/ha, Postemergence): 2 | Wild oats plant response rating (wild oat (Avena fatua); Rate 62 g/ha, Preemergence): 1 | Plant response rating, Wild oats (wild oat (Avena fatua); Rate 125 g/ha, Postemergence): 3 | Wild oats plant response rating (wild oat (Avena fatua); Rate 125 g/ha, Preemergence): 2 | Plant response rating, Wild oats (wild oat (Avena fatua); Rate 250 g/ha, Postemergence): 3 | Plant response rating, Wild oats (wild oat (Avena fatua); Rate 250 g/ha, Preemergence): 3 | Plant response rating, Barnyardgrass [13, 16]: 0 | Plant response rating, Barnyardgrass [13, 17]: 0 | Plant response rating, Barnyardgrass [13, 18]: 0 | Plant response rating, Ducksalad [14, 16]: 0 | Plant response rating, Ducksalad [14, 17]: 0 | Plant response rating, Ducksalad [14, 18]: 0 | Plant response rating, Rice (rice (Oryza sativa); [16]): 0 | Plant response rating, Rice (rice (Oryza sativa); [17]): 0 | Plant response rating, Rice (rice (Oryza sativa); [18]): 0 | Plant response rating, S. Flatsedge [15, 16]: 0 | Plant response rating, S. Flatsedge [15, 17]: 0 | Plant response rating, S. Flatsedge [15, 18]: 0
